Converted amounts (≈) assume the structure as drawn.
Key:
HBV [1] = experiment: Anti-HBV activity in vitro in HepG2.2.15 cells (extracellular HBV DNA by qPCR); format: cell-based, Hepatitis B virus; settings: Hepatitis B virus; HepG2.2.15 cells; in-house data; read-out: EC50
From the text: (§1) HepG2.2.15 and HepDE19 are stably-transfected cell lines containing the HBV genome. Both cell lines are derived from the hepatoblastoma cell line Hep G2 (American Type Culture Collection, ATCC® HB-8065™) by the published procedures described in references: MA Selles et al. Proc. Natl. Acad. Sci. USA 1987, 84, 1005-1009 and H Guo et al. Journal of Virology 2007, 81, 12472-12484, respectively. Both cell lines were maintained in Dulbecco's modified Eagle's medium (DMEM)-F12 medium supplemented with 10% fetal bovine serum, 100 U/mL penicillin, 100 μg/mL streptomycin, and 0.5 mg/mL of G418.
While HepG2.2.15 cells constitutively support HBV replication and production of virus particles, HepDE19 cells are inducible by tetracycline. Addition of 1 μg/mL tetracycline in culture medium suppresses HBV replication in HepDE19 cells, whereas switching to tetracycline-free medium resumes this process.
HepG2.2.15 cells were seeded into 96-well plates (3×10^4 cells in 100 μl media per well) and incubated overnight at 37° C. The test compounds were serially half-log diluted in DMSO, then diluted 100 times in culture media. 100 μL diluted compounds were added into the plates to reach 0.5% final concentration of DMSO in every well. Five days after compound treatment, culture supernatant was collected for further analysis.
For quantitative PCR detection of extracellular HBV DNA, 100 μL culture supernatant was collected and processed in MagNA Pure 96 Nucleic Acid Purification System (Roche Applied Science) for viral DNA extraction. The extracted samples were subjected to HBV DNA quantification by qPCR.
The compounds of the present invention were tested for their capacity to inhibit a HBV activity and activation as described herein.

[2] = Cytotoxicity (CC50) in HepDE19 cells, CCK-8 cell viability; format: cell-based; settings: human, HepDE19 cells; read-out: CC50
From the text: as §1
Five days after treatment, cell viability was measured by addition of 20 μL of CCK-8 reagent. Two hours after incubation at 37° C., the absorbance at wavelengths of 450 nm and 630 nm (OD450 and OD630) was recorded by a plate reader.

HBV [3] = experiment: Selectivity index (CC50 value/EC50 value); format: cell-based, Hepatitis B virus
From the text: Based on FDA guidance, in order to support clinical testing in humans, the assessment of acceptable risk-benefit has to be achieved by providing clear evidence of in vitro antiviral activity (EC50) and cytotoxicity (CC50). It is important to establish that an investigational product has antiviral activity at concentrations that can be achieved in vivo without inducing toxic effects to cells. Furthermore, in a cell culture model, apparent antiviral activity of an investigational product can be the result of host cell death after exposure to the product. The relative effectiveness of the compound in inhibiting viral replication compared to inducing cell death is defined as the selectivity index (CC50 value/EC50 value). It is desirable to have a high selectivity index giving maximum antiviral activity with minimal cell toxicity.
The relative effectiveness of the compound in inhibiting viral replication compared to inducing cell death is defined as the selectivity index (CC50 value/EC50 value). It is desirable to have a high selectivity index giving maximum antiviral activity with minimal cell toxicity.

[4] = Metabolic stability study in human microsome; format: in vitro ADME
How it was run: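 Human liver microsomes (0.5 mg/mL) with 1 μM compound in 100 mM phosphate pH 7.4 at 37 °C, started with 1 mM NADPH or an NADPH-regenerating system. Samples taken at 0, 3, 6, 9, 15 and 30 min, quenched in methanol. Parent remaining measured by LC-MS/MS; no-cofactor controls included.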

[5] = Lyophilisation solubility assay (Lysa); format: physicochemical; settings: phosphate buffer, pH 6.5, aqueous buffer, thermodynamic from solid
How it was run: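 Duplicate samples from 10 mM DMSO stocks are dried, redissolved in 0.05 M phosphate buffer pH 6.5, stirred 1 h, shaken 2 h and left overnight. Filtrate and its 1/10 dilution are quantified by direct UV or HPLC-UV, giving solubility in μg/mL.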

For `COC(=O)C1=C(CN2CCOC[C@]2(C)C(=O)O)NC(c2nccs2)=N[C@H]1c1ccc(F)c(F)c1Cl` (single isomer, unassigned) [Example 79], the EC50 (HBV [1]) was 4.5 nM, the CC50 at 5 days [2] was 76000 nM and the “Selectivity index (CC50/EC50)” value (HBV [3]) was 16889. For the same compound, the “Human Hepatic Clearance” value [4] was 2.18 mL/min/kg and the solubility thermodynamic [5] was over 660 µg/mL.

For `[2H][C@@]1(c2ccc(F)cc2Cl)N=C(c2nccs2)NC(CN2CC(F)(F)C[C@H]2C(=O)O)=C1C(=O)OC` [Example 3, (S)-6-((S)-2-Carboxy-4,4-difluoro-pyrrolidin-1-ylmethyl)-4-(2-chloro-4-fluoro-phenyl)-[4-^2H]-2-thiazol-2-yl-1,4-dihydro-pyrimidine-5-carboxylic acid methyl ester], the EC50 (HBV [1]) was 1.1 nM, the CC50 at 5 days [2] was 97000 nM and the “Selectivity index (CC50/EC50)” value (HBV [3]) was 88182. For the same compound, the “Human Hepatic Clearance” value [4] was 9.21 mL/min/kg and the solubility thermodynamic [5] was over 644 µg/mL.

With `COC(=O)C1=C(CN2CCOC[C@H]2C(=O)O)NC(c2ncc(F)cc2F)=N[C@H]1c1ccc(F)cc1Cl` [Example 6, (S)-4-[(R)-6-(2-Chloro-4-fluoro-phenyl)-2-(3,5-difluoro-pyridin-2-yl)-5-methoxycarbonyl-3,6-dihydro-pyrimidin-4-ylmethyl]-morpholine-3-carboxylic acid] the EC50 (HBV [1]) was 7.5 nM, the CC50 at 5 days [2] was 27000 nM and the “Selectivity index (CC50/EC50)” value (HBV [3]) was 3600. The “Human Hepatic Clearance” value [4] was 6.28 mL/min/kg and the solubility thermodynamic [5] was over 100 µg/mL.

In the case of `COC(=O)C1=C(CN2CC(F)(F)C[C@H]2C(=O)O)NC(c2nc(C3CC3)cs2)=N[C@H]1c1ccc(F)cc1Cl` [Example 10, (R)-6-((S)-2-Carboxy-4,4-difluoro-pyrrolidin-1-ylmethyl)-4-(2-chloro-4-fluoro-phenyl)-2-(4-cyclopropyl-thiazol-2-yl)-1,4-dihydro-pyrimidine-5-carboxylic acid methyl ester], the EC50 (HBV [1]) is reported as 7.3 nM, the CC50 at 5 days [2] is reported as 39000 nM and the “Selectivity index (CC50/EC50)” value (HBV [3]) is reported as 5342. The “Human Hepatic Clearance” value [4] was 8.76 mL/min/kg and the solubility thermodynamic [5] was 246 µg/mL (≈ 443 µM).

For `COC(=O)C1=C(CN2CC(F)(F)C[C@H]2C(=O)O)NC(c2cc(F)cs2)=N[C@H]1c1ccc(F)cc1Cl` [Example 12, (R)-6-((S)-2-Carboxy-4,4-difluoro-pyrrolidin-1-ylmethyl)-4-(2-chloro-4-fluoro-phenyl)-2-(4-fluoro-thiophen-2-yl)-1,4-dihydro-pyrimidine-5-carboxylic acid methyl ester], the EC50 (HBV [1]) was 9.3 nM, the CC50 at 5 days [2] was over 100000 nM and the “Selectivity index (CC50/EC50)” value (HBV [3]) was over 10753. The “Human Hepatic Clearance” value [4] was 5.55 mL/min/kg and the solubility thermodynamic [5] was 488 µg/mL (≈ 917 µM).

In the case of `[2H]C1([2H])[C@@H](C(=O)O)N(CC2=C(C(=O)OC)[C@H](c3ccc(F)cc3Cl)N=C(c3nccs3)N2)CC1(F)F` [Example 19, (R)-6-((S)-2-Carboxy-[3,3-^2H2]-4,4-difluoro-pyrrolidin-1-ylmethyl)-4-(2-chloro-4-fluoro-phenyl)-2-thiazol-2-yl-1,4-dihydro-pyrimidine-5-carboxylic acid methyl ester], the EC50 (HBV [1]) is reported as 5.7 nM, the CC50 at 5 days [2] is reported as 89000 nM and the “Selectivity index (CC50/EC50)” value (HBV [3]) is reported as 15614. The “Human Hepatic Clearance” value [4] was 3.65 mL/min/kg and the solubility thermodynamic [5] was over 654 µg/mL.

In the case of `COC(=O)C1=C(CN2CC(F)(F)C[C@H]2C(=O)O)NC(c2nc(C(F)(F)F)cs2)=N[C@H]1c1ccc(F)cc1Cl` [Example 25, (R)-6-((S)-2-Carboxy-4,4-difluoro-pyrrolidin-1-ylmethyl)-4-(2-chloro-4-fluoro-phenyl)-2-(4-trifluoromethyl-thiazol-2-yl)-1,4-dihydro-pyrimidine-5-carboxylic acid methyl ester], the EC50 (HBV [1]) is reported as 5 nM, the CC50 at 5 days [2] is reported as over 100000 nM and the “Selectivity index (CC50/EC50)” value (HBV [3]) is reported as over 20000. For the same compound, the “Human Hepatic Clearance” value [4] was 9.34 mL/min/kg and the solubility thermodynamic [5] was 546 µg/mL (≈ 937 µM).

In the case of `COC(=O)C1=C(CN2CC(F)(F)C[C@H]2C(=O)O)NC(c2nc(C(C)C)cs2)=N[C@H]1c1ccc(F)cc1Cl` [Example 28, (R)-6-((S)-2-Carboxy-4,4-difluoro-pyrrolidin-1-ylmethyl)-4-(2-chloro-4-fluoro-phenyl)-2-(4-isopropyl-thiazol-2-yl)-1,4-dihydro-pyrimidine-5-carboxylic acid methyl ester], the EC50 (HBV [1]) is reported as 4.4 nM, the CC50 at 5 days [2] is reported as 31000 nM and the “Selectivity index (CC50/EC50)” value (HBV [3]) is reported as 7045. For the same compound, the solubility thermodynamic [5] was 247 µg/mL (≈ 443 µM).

For `COC(=O)C1=C(CN2CC(F)(F)C[C@H]2C(=O)O)NC(c2nccn2C)=N[C@H]1c1ccc(F)cc1Cl` [Example 32, (R)-6-((S)-2-Carboxy-4,4-difluoro-pyrrolidin-1-ylmethyl)-4-(2-chloro-4-fluoro-phenyl)-2-(1-methyl-1H-imidazol-2-yl)-1,4-dihydro-pyrimidine-5-carboxylic acid methyl ester], the EC50 (HBV [1]) was 13 nM, the CC50 at 5 days [2] was 40000 nM and the “Selectivity index (CC50/EC50)” value (HBV [3]) was 3125. The “Human Hepatic Clearance” value [4] was 5.04 mL/min/kg and the solubility thermodynamic [5] was 632 µg/mL (≈ 1230 µM).

In the case of `CCOC(=O)C1=C(CN2CC(F)(F)C[C@H]2C(=O)O)NC(c2nccs2)=N[C@H]1c1ccc(F)cc1Cl` [Example 34, (R)-6-((S)-2-Carboxy-4,4-difluoro-pyrrolidin-1-ylmethyl)-4-(2-chloro-4-fluoro-phenyl)-2-thiazol-2-yl-1,4-dihydro-pyrimidine-5-carboxylic acid ethyl ester], the EC50 (HBV [1]) is reported as 10 nM, the CC50 at 5 days [2] is reported as over 100000 nM and the “Selectivity index (CC50/EC50)” value (HBV [3]) is reported as over 10000. The “Human Hepatic Clearance” value [4] was 7.46 mL/min/kg and the solubility thermodynamic [5] was 531 µg/mL (≈ 1000 µM).

For `COC(=O)C1=C(CN2CCOC[C@H]2C(=O)O)NC(c2nc(SC)cs2)=N[C@H]1c1ccc(F)cc1Cl` [Example 61, (3S)-4-[[(4R)-4-(2-Chloro-4-fluorophenyl)-5-methoxycarbonyl-2-(4-methylsulfanyl-1,3-thiazol-2-yl)-1,4-dihydropyrimidin-6-yl]methyl]morpholine-3-carboxylic acid], the EC50 (HBV [1]) was 18 nM, the CC50 at 5 days [2] was 56000 nM and the “Selectivity index (CC50/EC50)” value (HBV [3]) was 3133. For the same compound, the solubility thermodynamic [5] was 495 µg/mL (≈ 915 µM).

For `CCOC(=O)C1=C(CN2CCO[C@H](C)[C@H]2C(=O)O)NC(c2nccs2)=N[C@H]1c1ccc(F)c(F)c1` [Example 112, (2R,3S)-4-[(S)-6-(3,4-Difluoro-phenyl)-5-ethoxycarbonyl-2-thiazol-2-yl-3,6-dihydro-pyrimidin-4-ylmethyl]-2-methyl-morpholine-3-carboxylic acid], the EC50 (HBV [1]) was 5.2 nM, the CC50 at 5 days [2] was 73000 nM and the “Selectivity index (CC50/EC50)” value (HBV [3]) was 14123. For the same compound, the “Human Hepatic Clearance” value [4] was 1.95 mL/min/kg.

In the case of `COC(=O)C1=C(CN2CCO[C@H](C)[C@H]2C(=O)O)NC(c2nccs2)=N[C@H]1c1ccccc1Br` [Example 119, (2R,3S)-4-[(R)-6-(2-Bromo-phenyl)-5-methoxycarbonyl-2-thiazol-2-yl-3,6-dihydro-pyrimidin-4-ylmethyl]-2-methyl-morpholine-3-carboxylic acid], the EC50 (HBV [1]) is reported as 3 nM, the CC50 at 5 days [2] is reported as over 100000 nM and the “Selectivity index (CC50/EC50)” value (HBV [3]) is reported as over 33333. For the same compound, the “Human Hepatic Clearance” value [4] was 0.85 mL/min/kg.

For `CCOC(=O)C1=C(CN2CCOC[C@H]2C(=O)O)NC(c2nccs2)=N[C@H]1c1ccccc1I` [Example 129, (3S)-4-[[(4R)-5-Ethoxycarbonyl-4-(2-iodophenyl)-2-(1,3-thiazol-2-yl)-1,4-dihydropyrimidin-6-yl]methyl]morpholine-3 carboxylic acid], the EC50 (HBV [1]) was 7.6 nM, the CC50 at 5 days [2] was over 100000 nM and the “Selectivity index (CC50/EC50)” value (HBV [3]) was over 13158. The “Human Hepatic Clearance” value [4] was 4.25 mL/min/kg.
